According to patent publication US20030171377A1, “Antidiabetic agents” (priority 2001, published 2003):

Columns and labels:
3T3-L1 preadipocytes = test: 3T3-L1 Adipocyte Differentiation Assay (ADPDIFF), Test A; type: cell-based; conditions: BODIPY lipid fluorescence, reported as % of BRL 49653 at 5 μM
Procedure: Cells are replenished with FBS containing media on day 5 of post-drug treatment and incubated for additional 4-6 days. Cells are stained with BODIPY a fluorescent lipophilic stain to quantitate the lipid content of the cells. The assay is optimized for a 96-well plate format. Approximately after 10 days of post-drug treatment, cells are fixed in 3% formalin solution for 15 min followed by staining with BODIPY (80 μg/ml) for 20 min at room temperature. The plate is then put through the CYTOFLUOR instrument to measure the fluorescence of BODIPY (excitation=485/20; emission=530/25).

[1] = Blood Glucose Measurement (Glucose Δ), Test D; type: in vivo, mice; set-up: key to Glucose Δ: change in blood glucose, mg/dL; conditions: for Glucose Δ: 4 hours post dose, 4 hour fasted animals, tail vein whole blood; for % BRL (in vivo, beside Glucose Δ): glucose change relative to BRL
Procedure: Test D—Blood Glucose Measurement (Glucose Δ) Glucose is obtained 4 hours post dose via tail vein stick (5 μl whole blood) in awake, 4 hour fasted animals. Blood is drawn by capillary action into a glucose cuvette and read in a HemoCue Glucose Analyzer (Ryan Diagnostics). Blood is diluted 1:2 with saline if glucose levels are greater than 400 mg/dl (meter high range) and results multiplied by two.

[2] = system: endogenous nuclear receptors in CV-1 cells; test: CV-1 Native Receptors Transcription Assay (MKNRCV1), Test C; type: cell-based, African green monkey; conditions: for MKNRCV1 % BRL @ 25 μM: percent activity of BRL 49653; for EC50: Chlorocebus sabaeus, CV-1 cells, 48 hours, unit inferred
[3] = system: CV-1 cells (FATP promoter luciferase reporter, 300 nM BRL); test: ANTCV1 Antagonist Transcription Assay, Test B; type: cell-based, African green monkey; conditions: Chlorocebus sabaeus, 25 μM test compound with 300 nM BRL, 48 hrs, % BRL inhibition, read-out: ANTCV1 INHIB @ 25 μM

| SMILES | ADPDIFF % BRL @ 5 μM (3T3-L1 preadipocytes) | Glucose Δ [1] | % BRL (in vivo, beside Glucose Δ) [1] | MKNRCV1 % BRL @ 25 μM [2] | EC50 [2] | inhibition at 25 µM [3] |
| --- | --- | --- | --- | --- | --- | --- |
| CC(=O)c1cccn1[C@@H](Cc1ccc(OCCc2nc(-c3ccccc3)oc2C)cc1)C(=O)O [drawing 230] | 89 % BRL | 12.4 | −5.1 % BRL | 60 % BRL | 3600 nM | 20% |
| CN(CCCc1ccc(C[C@@H](C(=O)O)n2cccc2)cc1)c1ccccc1 | 61 % BRL | 63.0 | −27.0 % BRL | 68 % BRL |  |  |
| Cc1oc(-c2ccccc2)nc1CCOc1ccc(C[C@@H](C(=O)O)n2ccc(-c3ccccc3)c2)cc1 [drawing 241] | 125 % BRL | −194.0 | 83.3 % BRL | 54 % BRL | 900 nM | 29% |
| Cc1oc(-c2ccccc2)nc1CCOc1ccc(CC(C(=O)O)c2ccccc2)cc1 (centres unmarked) | 94 % BRL | 49.2 | −35.5 % BRL | 109 % BRL | 300 nM | -48% |
| CCc1nnc([C@H](Cc2ccc(OCCc3nc(-c4ccccc4)oc3C)cc2)n2cccc2)o1 | 88 % BRL | 46.5 | −20.0 % BRL | 12 % BRL |  | 53.8% |
| Cc1oc(-c2ccccc2)nc1CCOc1ccc(C[C@@H](C(=O)O)n2cccc2C(=O)C(F)(F)F)cc1 [drawing 233] | 105 % BRL | −157.2 | 113.3 % BRL | 75 % BRL | 1700 nM | -1% |
| CN(C/C=C/c1ccc(C[C@@H](C(=O)O)n2cccc2)cc1)c1ccccn1 | 94 % BRL |  |  | 92 % BRL | 900 nM | -36% |
| Cc1oc(-c2ccccc2)nc1CCOc1ccc(C[C@@H](C(=O)NS(C)(=O)=O)n2cccc2)cc1 | 110 % BRL |  |  | 97 % BRL | 3200 nM | -30% |
| CCCc1nnc([C@H](Cc2ccc(OCCc3nc(-c4ccccc4)oc3C)cc2)n2cccc2)o1 | 94 % BRL |  |  | 0 % BRL |  | 84% |
| O=C(O)[C@H](Cc1ccc(/C=C/CN2CCC(c3ccccc3)CC2)cc1)n1cccc1 [drawing 292] | 183 % BRL |  |  | 40 % BRL |  | 44% |
| Cc1oc(-c2ccccc2)nc1CCOc1ccc(CC(C(=O)O)n2cccc2C(=O)c2ccccc2)cc1 (centres unmarked) | 33 % BRL | 108.6 | −50.3 % BRL | 46 % BRL | 12900 nM |  |
| Cc1oc(-c2ccccc2)nc1CCCc1ccc(C[C@@H](C(=O)O)n2cccc2)cc1 | 62 % BRL | −166.6 | 121.8 % BRL | 69 % BRL |  |  |
| O=C(O)[C@H](Cc1ccc(CCCN2CCC(c3ccccc3)CC2)cc1)n1cccc1 [drawing 293] | 38 % BRL |  |  | 22 % BRL |  | 50% |
| COC(=O)[C@H](Cc1ccc(/C=C/CN2CCC(c3ccccc3)CC2)cc1)n1cccc1 | 32 % BRL |  |  | 47 % BRL |  | 25% |
| CC(=O)c1cccn1[C@@H](Cc1ccc(OCc2ccccc2F)cc1)C(=O)O | 3 % BRL |  |  | 25 % BRL |  | -40% |
| Cc1oc(-c2ccccc2)nc1CCOc1ccc(C[C@@H](C(=O)O)n2c(C)cc(Cl)c2C)cc1 | 28 % BRL |  |  | 55 % BRL |  | 5% |
| Cc1oc(-c2ccccc2)nc1CCOc1ccc(CC(C(=O)O)n2ccc(C(=O)C(C)C)c2)cc1 (centres unmarked) | 120 % BRL |  |  | 70 % BRL | 23600 nM | -10% |
| Cc1oc(-c2ccccc2)nc1CC#Cc1ccc(C[C@@H](C(=O)O)n2cccc2)cc1 | 100 % BRL | 62.0 | −45.3 % BRL | 94 % BRL |  |  |
| O=C(O)[C@H](Cc1ccc(OCCn2c(-c3ccccc3)nc3ccccc32)cc1)n1cccc1 | 19 % BRL |  |  | 39 % BRL |  | -69% |
| O=C(O)[C@H](Cc1ccc(OCCCc2ccncc2)cc1)n1cccc1 | 3 % BRL |  |  | 44 % BRL |  | 3% |
| Cc1oc(-c2ccccc2)nc1CCOc1ccc(C[C@@H](C(=O)O)n2c(C)ccc2-c2ccccc2)cc1 | 2 % BRL |  |  | 24 % BRL |  | -3% |
| COC(=O)[C@H](Cc1ccc(C#CCc2nc(-c3ccccc3)oc2C)cc1)n1cccc1 | 90 % BRL |  |  | 123 % BRL | 100 nM | -114% |
| Cc1oc(-c2ccccc2)nc1CCOc1ccc(CC(C)(C(=O)O)c2ccccc2)cc1 (centres unmarked) [drawing 218] | 99 % BRL |  |  | 44 % BRL | 13000 nM | 65% |
| Cc1oc(-c2ccccc2)nc1CCOc1ccc(CC(C(=O)O)N2CCCC2=O)cc1 (centres unmarked) | 0 % BRL |  |  | 29 % BRL |  | -94% |
| Cc1oc(-c2ccccc2)nc1CCOc1ccc(CC(C(=O)O)n2cccc2)cc1 (centres unmarked) | 67 % BRL | −196.0 | 109.4 % BRL | 86 % BRL |  |  |
| Cc1oc(-c2ccccc2)nc1CCOc1ccc(C[C@@H](C(=O)O)n2ccc(Br)c2)cc1 | 84 % BRL |  |  | 85 % BRL | 60 nM | -57.5% |
